What was measured:
Conditions in all cases: 2 µM
[1] = (§1) The drug is tested on Z-029 corresponding to rat gut metagenome with ENA study accession number: PRJEB37062 and ENA sample accession number: ERS12561828 for biotransformation under anaerobic condition. The drug concentrations were measured over 9 timepoints collected between 0 and 24 hours of incubation by liquid-chromatography-coupled mass spectrometry (LC–MS)
[2] = as §1, with “on Z-001” for “on Z-029”, “to mouse” for “to rat”, “number: ERS12561801” for “number: ERS12561828”
[3] = as §1, with “on Z-002” for “on Z-029”, “to rabbit” for “to rat”, “number: ERS12561802” for “number: ERS12561828”
[4] = as §1, with “Z-021” for “Z-029”, “to” for “to rat gut”, “ERS12561820” for “ERS12561828”
[5] = as §1, with “on Z-013” for “on Z-029”, “to rabbit” for “to rat”, “number: ERS12561813” for “number: ERS12561828”
[6] = as §1, with “Z-008” for “Z-029”, “to” for “to rat gut”, “ERS12561808” for “ERS12561828”
[7] = as §1, with “on Z-011” for “on Z-029”, “to mouse” for “to rat”, “number: ERS12561811” for “number: ERS12561828”
[8] = as §1, with “Z-004” for “Z-029”, “to” for “to rat gut”, “ERS12561804” for “ERS12561828”
[9] = as §1, with “on Z-025” for “on Z-029”, “to rabbit” for “to rat”, “number: ERS12561824” for “number: ERS12561828”
[10] = as §1, with “Z-026” for “Z-029”, “to” for “to rat gut”, “ERS12561825” for “ERS12561828”
[11] = as §1, with “Z-007” for “Z-029”, “ERS12561807” for “ERS12561828”
[12] = as §1, with “on Z-006” for “on Z-029”, “to mouse” for “to rat”, “number: ERS12561806” for “number: ERS12561828”
[13] = as §1, with “on Z-030” for “on Z-029”, “to mouse” for “to rat”, “number: ERS12561829” for “number: ERS12561828”
[14] = as §1, with “on Z-003” for “on Z-029”, “to pig” for “to rat”, “number: ERS12561803” for “number: ERS12561828”
[15] = as §1, with “Z-005” for “Z-029”, “to” for “to rat gut”, “ERS12561805” for “ERS12561828”
[16] = as §1, with “on Z-024” for “on Z-029”, “to pig” for “to rat”, “number: ERS12561823” for “number: ERS12561828”
[17] = as §1, with “on Z-028” for “on Z-029”, “to mouse” for “to rat”, “number: ERS12561827” for “number: ERS12561828”
[18] = as §1, with “Z-012” for “Z-029”, “to” for “to rat gut”, “ERS12561812” for “ERS12561828”
[19] = as §1, with “on Z-022” for “on Z-029”, “to mouse” for “to rat”, “number: ERS12561821” for “number: ERS12561828”
[20] = as §1, with “on Z-017” for “on Z-029”, “to mouse” for “to rat”, “number: ERS12561816” for “number: ERS12561828”
[21] = as §1, with “Z-010” for “Z-029”, “to” for “to rat gut”, “ERS12561810” for “ERS12561828”
[22] = as §1, with “Z-019” for “Z-029”, “ERS12561818” for “ERS12561828”
[23] = as §1, with “Z-027” for “Z-029”, “to” for “to rat gut”, “ERS12561826” for “ERS12561828”
[24] = as §1, with “Z-023” for “Z-029”, “to” for “to rat gut”, “ERS12561822” for “ERS12561828”
[25] = as §1, with “Z-014” for “Z-029”, “ERS12561814” for “ERS12561828”
[26] = as §1, with “on Z-018” for “on Z-029”, “to pig” for “to rat”, “number: ERS12561817” for “number: ERS12561828”
[27] = as §1, with “on Z-020” for “on Z-029”, “to rabbit” for “to rat”, “number: ERS12561819” for “number: ERS12561828”
[28] = as §1, with “on Z-016” for “on Z-029”, “to mouse” for “to rat”, “number: ERS12561815” for “number: ERS12561828”
[29] = as §1, with “on Z-009” for “on Z-029”, “to pig” for “to rat”, “number: ERS12561809” for “number: ERS12561828”
Note: call rule not given here.

Bacterial Biotransformation [1] | Bacterial Biotransformation [2] | Bacterial Biotransformation [3] | Bacterial Biotransformation [4] | Bacterial Biotransformation [6] | Bacterial Biotransformation [7] | Bacterial Biotransformation [8] | Bacterial Biotransformation [10] | Bacterial Biotransformation [11] | Bacterial Biotransformation [12] | Bacterial Biotransformation [14] | Bacterial Biotransformation [15] | Bacterial Biotransformation [16] | Bacterial Biotransformation [17] | Bacterial Biotransformation [18] | Bacterial Biotransformation [19] | Bacterial Biotransformation [21] | Bacterial Biotransformation [23] | Bacterial Biotransformation [24] | Bacterial Biotransformation [29] | SMILES | other results
Compound NOT metabolized | Compound NOT metabolized | Compound NOT metabolized | Compound metabolized | Compound metabolized | Compound NOT metabolized | Compound NOT metabolized | Compound metabolized | Compound NOT metabolized | Compound metabolized | Compound metabolized | Compound metabolized | Compound metabolized | Compound metabolized | Compound NOT metabolized | Compound metabolized | Compound metabolized | Compound NOT metabolized | Compound metabolized | Compound metabolized | O=C1CCc2ccc(OCCCCN3CCN(c4cccc(Cl)c4Cl)CC3)cc2N1 [ARIPIPRAZOLE] | Bacterial Biotransformation [5]: Compound metabolized; Bacterial Biotransformation [9]: Compound metabolized; Bacterial Biotransformation [13]: Compound NOT metabolized; Bacterial Biotransformation [20]: Compound metabolized; Bacterial Biotransformation [22]: Compound NOT metabolized; Bacterial Biotransformation [25]: Compound metabolized; Bacterial Biotransformation [26]: Compound metabolized; Bacterial Biotransformation [27]: Compound metabolized; Bacterial Biotransformation [28]: Compound metabolized
 | Compound NOT metabolized | Compound metabolized | Compound metabolized | Compound NOT metabolized | Compound NOT metabolized | Compound metabolized | Compound metabolized | Compound NOT metabolized | Compound NOT metabolized | Compound metabolized | Compound NOT metabolized | Compound metabolized | Compound NOT metabolized | Compound metabolized | Compound metabolized | Compound metabolized | Compound NOT metabolized | Compound metabolized | Compound metabolized | C[C@H]1C[C@H]2[C@@H]3CCC4=CC(=O)C=C[C@]4(C)[C@@]3(F)[C@@H](O)C[C@]2(C)[C@@]1(O)C(=O)CO [BETAMETHASONE] | 
Compound NOT metabolized | Compound NOT metabolized | Compound NOT metabolized |  | Compound NOT metabolized | Compound NOT metabolized | Compound NOT metabolized | Compound NOT metabolized | Compound NOT metabolized | Compound NOT metabolized | Compound NOT metabolized | Compound NOT metabolized | Compound NOT metabolized | Compound NOT metabolized | Compound NOT metabolized | Compound NOT metabolized | Compound NOT metabolized | Compound NOT metabolized |  | Compound NOT metabolized | Cc1ccc(NC(=O)c2ccc(CN3CCN(C)CC3)cc2)cc1Nc1nccc(-c2cccnc2)n1 [IMATINIB] | Bacterial Biotransformation [5]: Compound NOT metabolized; Bacterial Biotransformation [9]: Compound NOT metabolized; Bacterial Biotransformation [13]: Compound NOT metabolized; Bacterial Biotransformation [20]: Compound NOT metabolized; Bacterial Biotransformation [25]: Compound NOT metabolized; Bacterial Biotransformation [26]: Compound NOT metabolized; Bacterial Biotransformation [27]: Compound NOT metabolized; Bacterial Biotransformation [28]: Compound NOT metabolized
Compound NOT metabolized | Compound NOT metabolized | Compound metabolized | Compound NOT metabolized | Compound NOT metabolized | Compound NOT metabolized | Compound metabolized | Compound NOT metabolized | Compound NOT metabolized | Compound NOT metabolized | Compound metabolized | Compound metabolized | Compound NOT metabolized | Compound NOT metabolized | Compound metabolized | Compound NOT metabolized | Compound metabolized | Compound NOT metabolized | Compound NOT metabolized | Compound metabolized | CN1CCCCC1CCN1c2ccccc2Sc2ccc([S+](C)[O-])cc21.O=S(=O)(O)c1ccccc1 (stereo unspecified) [MESORIDAZINE BESYLATE] | Bacterial Biotransformation [5]: Compound NOT metabolized; Bacterial Biotransformation [9]: Compound metabolized; Bacterial Biotransformation [13]: Compound NOT metabolized; Bacterial Biotransformation [28]: Compound metabolized
 |  | Compound NOT metabolized | Compound NOT metabolized | Compound NOT metabolized |  |  | Compound metabolized |  | Compound NOT metabolized |  |  |  |  | Compound metabolized |  |  |  | Compound metabolized | Compound metabolized | CN1CCN(CCCN2c3ccccc3Sc3ccc(Cl)cc32)CC1.O=S(=O)(O)CCS(=O)(=O)O [PROCHLORPERAZINE EDISYLATE] | 

From ChEMBL document CHEMBL5724914, “Linking interpersonal differences in gut microbiota composition and drug biotransformation activity” (2024)
